# Reference: patent publication US10561657B2, “Pyrrolopyrimidine compound” (CENTAURUS BIOPHARMA CO., LTD., priority 2014, dated 2020)
# Counter-ions that a name gives are not always drawn. Like-named read-outs stand apart in the source and are kept apart here.
# Assays:
# [1] = target: JAK2 kinase (wild type, JAK2^WT) (Homo sapiens (Human), UniProt O60674); experiment: HTRF assay for enzymatic activity (IC50), JAK2 wild type; format: biochemical; conditions: ATP at Km, 120 min, 23 °C
# Experimental: (§1) 1. Assay for Enzymatic Activity (IC50) of Compounds
# (§2) A testing platform for kinase activity of JAK2 (wild type and V617F mutant type) was established based on Homogeneous Time-Resolved Fluorescence (HTRF) assay, and the activities of the compounds were tested using the platform. The compounds were subjected to three-fold gradient dilutions with 100% DMSO with a starting concentration of 1 mM (11 dilutions in total). 4 μL of each dilution was added to 96 μL of reaction buffer (50 mM HEPES, pH 7.4, 10 mM MgCl2, 1 mM EGTA, 0.01% Tween-20, 0.005% BAS, 2 mM DTT) and mixed homogeneously. […] The mixture was mixed homogeneously by centrifugation. […] The plate was incubated in the incubator for 1 hr, and then the fluorescence values were read on Envision (available from PerkinElmer). […] The enzymatic activity was representd by a ratio of the two readout at the two emission wavelengths. The enzymatic activity for each compound was tested at 11 concentrations, and IC50 values of the compounds were obtained by calculating the data using GraFit6.0 software (Erithacus Software). 2. Assay for cell proliferation activity (IC50) of compounds
# [2] = target: JAK2 kinase (V617F mutant type, JAK2^V617F) (Homo sapiens (Human), UniProt O60674, V617F); experiment: HTRF assay for enzymatic activity (IC50), JAK2 V617F mutant type; format: biochemical; conditions: ATP at Km, 120 min, 23 °C
# JAK2 kinase (V617F mutant type, JAK2^V617F), sequence (O60674 whole entry V617F): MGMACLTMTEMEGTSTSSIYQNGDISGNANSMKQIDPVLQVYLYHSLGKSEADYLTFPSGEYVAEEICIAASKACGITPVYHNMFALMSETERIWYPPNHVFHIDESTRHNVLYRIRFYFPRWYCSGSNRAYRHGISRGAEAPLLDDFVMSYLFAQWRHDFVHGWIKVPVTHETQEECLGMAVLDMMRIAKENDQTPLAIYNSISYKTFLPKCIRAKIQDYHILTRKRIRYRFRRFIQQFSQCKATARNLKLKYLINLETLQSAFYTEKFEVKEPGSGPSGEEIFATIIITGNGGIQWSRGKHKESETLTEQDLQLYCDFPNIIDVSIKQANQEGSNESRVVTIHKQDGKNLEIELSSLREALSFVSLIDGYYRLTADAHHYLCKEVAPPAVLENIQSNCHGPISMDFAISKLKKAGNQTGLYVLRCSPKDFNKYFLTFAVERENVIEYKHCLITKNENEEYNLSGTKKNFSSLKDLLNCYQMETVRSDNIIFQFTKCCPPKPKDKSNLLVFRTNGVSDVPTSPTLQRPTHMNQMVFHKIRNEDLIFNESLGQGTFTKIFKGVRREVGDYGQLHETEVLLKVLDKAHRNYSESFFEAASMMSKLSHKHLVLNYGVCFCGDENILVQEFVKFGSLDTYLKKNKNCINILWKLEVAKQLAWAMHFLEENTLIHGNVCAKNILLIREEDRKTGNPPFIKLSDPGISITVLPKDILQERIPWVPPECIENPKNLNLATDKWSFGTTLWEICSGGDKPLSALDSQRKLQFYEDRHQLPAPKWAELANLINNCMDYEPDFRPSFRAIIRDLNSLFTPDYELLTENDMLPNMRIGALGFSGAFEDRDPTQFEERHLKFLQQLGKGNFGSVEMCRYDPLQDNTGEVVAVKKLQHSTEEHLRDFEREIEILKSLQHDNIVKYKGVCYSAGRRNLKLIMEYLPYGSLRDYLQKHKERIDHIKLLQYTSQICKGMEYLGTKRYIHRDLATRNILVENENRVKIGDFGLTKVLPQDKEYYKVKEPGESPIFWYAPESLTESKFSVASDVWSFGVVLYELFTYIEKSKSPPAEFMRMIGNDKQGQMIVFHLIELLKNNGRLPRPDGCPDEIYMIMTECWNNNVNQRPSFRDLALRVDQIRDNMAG
# Experimental: as §1, §2
# [3] = test system: Ba/F3-JAK2V617F tumor; experiment: Efficacy in mouse subcutaneous xenograft tumor model; format: in vivo, Balb/c nude mice; conditions: for TGI (%) 3 d: day 3; for TGI (%) 7 d: day 7; for TGI (%) 10 d: day 10; for TGI (%) 14 d: day 14
# Experimental: 3. Assay for Efficacy in Mouse Subcutaneous Xenograft Tumor Model SPF grade Balb/c nude mice are female and 5-6 weeks old. 0.1 mL of the suspension of Ba/F3-JAK2V617F cells in serum-free culture medium (containing 1×10^7 cells, 50% MatriGel) was subcutaneously injected into right flank of each mouse. When the average tumor volume reached about 500 mm^3, the tumor-bearing mice were sacrificed. The tumor tissues were aseptically picked up, and cut into small pieces, which were subcutaneously implanted into both flanks of Balb/c nude mice. When the average tumor volume reached about 100 mm^3, each mouse was marked according to serial numbers, and their tumor sizes and body weights were measured, respectively. These mice were randomly allocated from small to large in terms of tumor volume, and each group of animals was appropriately adjusted to make the average body weights of the groups in a same level. […] The administration was started on the day of allocation, twice per day for 14 days. During the administration, the tumor volumes and body weights were measured twice per week. The mice were sacrificed at the end of the experiment, and the spleen was isolated and weighted. During the experiment, the maximum long diameter (L) and the maximum transverse diameter in the vertical direction (W) of the tumor were measured to calculate the tumor volume (V) according to V (mm^3)=L×W^2/2. […] T0 represents the average tumor volume of the treatment group when being allocated; Vt represents the average tumor volume measured every time in the control group; V0 represents the average tumor volume of the control group when being allocated.
# [4] = Pharmacokinetic assay in adult female SD rats (30 mg/kg oral); format: in vivo; conditions: female, Sprague-Dawley, rat, plasma, po, 30 mg/kg
# [5] = in vivo; conditions: male, Sprague-Dawley, rat, plasma, po, 5 mg/kg
# [6] = test system: HEL (JAK2^V617F) cells; experiment: Cell proliferation assay (CellTiter-Blue, 72 hrs); format: cell-based; conditions: Homo sapiens; 72 hrs of treatment
# [7] = 0.5% MC, FDA pharmacology review, cited from earlier work
# [8] = rats, 30 mg/kg PO; FDA pharmacology review; cited from earlier work
# [9] = dogs, male, FDA pharmacology review, cited from earlier work
# JAK2 kinase (wild type, JAK2^WT), sequence (O60674 whole entry): as the sequence (O60674 whole entry V617F) above, with F617V counted along it
compound,measurement,setting,value
"N#CCC(C1CCCC1)n1cc(-c2ncnc3[nH]ccc23)c(N)n1 (stereo not drawn) [Example 1, 3-[3-amino-4-(7H-pyrrolo[2,3-d]pyrimidin-4-yl)-1H-pyrazol-1-yl]-3-cyclopentylpropanenitrile]",IC50,[1],< 0.02 µM
same,IC50,[2],< 0.02 µM
"N#CC[C@H](C1CCCC1)n1cc(-c2ncnc3[nH]ccc23)c(N)n1 [(3R)-3-[3-amino-4-(7H-pyrrolo[2,3-d]pyrimidin-4-yl)-1H-pyrazol-1-yl]-3-cyclopentylpropanenitrile hydrochloride]",TGI (%) 3 d,[3]; 25 mg/kg PO BID,45.45%
same,TGI (%) 7 d,[3]; 25 mg/kg PO BID,16.85%
same,TGI (%) 10 d,[3]; 25 mg/kg PO BID,54.49%
same,TGI (%) 14 d,[3]; 25 mg/kg PO BID,40.74%
same,TGI (%) 3 d,[3]; 50 mg/kg PO BID,41.77%
same,TGI (%) 7 d,[3]; 50 mg/kg PO BID,43.60%
same,TGI (%) 10 d,[3]; 50 mg/kg PO BID,65.19%
same,TGI (%) 14 d,"[3]; 50 mg/kg PO BID, hydrochloride",68.40%
same,TGI (%) 14 d,"[3]; 50 mg/kg PO BID, listed as hydrochloride of the compound of Example 5, hydrochloride",68.4%
same,TGI (%) 3 d,[3]; 100 mg/kg PO BID,91.62%
same,TGI (%) 7 d,[3]; 100 mg/kg PO BID,79.76%
same,TGI (%) 10 d,[3]; 100 mg/kg PO BID,89.37%
same,TGI (%) 14 d,"[3]; 100 mg/kg PO BID, hydrochloride",85.76%
same,TGI (%) 14 d,"[3]; 100 mg/kg PO BID, listed as hydrochloride of the compound of Example 5, hydrochloride",85.8%
same,inhibitory effect on Ba/F3-JAK2V617F tumor growth,"[3]; 25, 50, 100 mg/kg PO BID for 14 days",dose-dependent inhibitory effect
same,half-life,[4],117 min
same,AUC(0-inf),[4]; read-out: AUCINFobs,5760 ng·h/mL
same,Cmax,[4]; read-out: Cmax,2350 ng/mL
same,Tmax,[4]; read-out: Tmax,19.8 min
"CCNc1nn(C(CC#N)C2CCCC2)cc1-c1ncnc2[nH]ccc12 (stereo not drawn) [Example 7, 3-[3-ethylamino-4-(7H-pyrrolo[2,3-d]pyrimidin-4-yl)-1H-pyrazol-1-yl]-3-cyclopentylpropanenitrile]",AUC(0-inf),[5],20 ng·h/mL
same,Cmax,[5],13.5 ng/mL
same,Tmax,[5],19.8 min
same,half-life,[5],30 min
same,IC50,[6],< 200 nM
same,IC50,[1],< 0.02 µM
same,IC50,[2],< 0.02 µM
N#CC[C@H](C1CCCC1)n1cc(-c2ncnc3[nH]ccc23)cn1 [Ruxolitinib Phosphate],AUCINF—obs,"[7]; female rats, oral 15 mg/kg",336 ng·h/mL
same,Cmax,"[7]; female rats, oral 15 mg/kg",267 ng/mL
same,T1/2,"[7]; female rats, oral 15 mg/kg",119 min
same,Tmax,"[7]; female rats, oral 15 mg/kg",30 min
same,AUCINF—obs,"[7]; male rats, oral 5 mg/kg",3.33 ng·h/mL
same,Cmax,"[7]; male rats, oral 5 mg/kg",4.69 ng/mL
same,Tmax,"[7]; male rats, oral 5 mg/kg",30 min
N#CC[C@H](C1CCCC1)n1cc(-c2ncnc3[nH]ccc23)cn1 [Ruxolitinib],AUCINFobs,[8],1345 ng·h/mL
same,Cmax,[8],1143 ng/mL
same,Tmax,[8],30 min
same,t1/2,[8],73.2 min
same,AUCINF—obs,[9]; IV 5 mg/kg,13776 ng·h/mL
same,Cl_obs,[9]; IV 5 mg/kg,8 mL/min/kg
same,Vss_obs,[9]; IV 5 mg/kg,1.1 L/kg
same,t1/2,[9]; IV 5 mg/kg,150 min
same,AUCINF—obs,[9]; PO 10 mg/kg,15716 ng·h/mL
same,Cmax,[9]; PO 10 mg/kg,3519 ng/mL
same,F,[9]; PO 10 mg/kg,57%
same,Tmax,[9]; PO 10 mg/kg,120 min
same,t1/2,[9]; PO 10 mg/kg,132 min
